Earlier results on 2 compounds are cited in article PMC8683664 (International Journal of Pharmaceutics: X, 2021).

The structures appear in SMILES notation. ≈ marks a conversion by molar mass, not a printed value. Like-named read-outs stand apart in the source and are kept apart here.

For one data set, the system named is SAR-CoV-2. The conditions noted are these: human airway epithelial (HAE) cells, value in brackets ref Agostini et al., 2018.
For data set [1], the system named is SARS-CoV-2. The conditions noted are these: read-out: EC50 in Calu-3; continuous human lung epithelial cell line (Calu-3), prescribing information of Veklury ref Gilead Sciences, Inc., 2020.
Data set [2] concerns SARS-CoV-2. The conditions noted are these: 2020; for EC50 in Calu-3 2B4 cells: value in brackets ref Pruijssers et al.; for EC50: read-out: EC50 in Calu-3 2B4 cells, Calu-3 2B4 cells ref Pruijssers et al.
A further data set deals with severe COVID-19 patients. The conditions noted are these: 10-day course, placebo 15 days ref Beigel et al., 2020.

By EC50 is commonly meant the concentration giving half of the maximal effect. Take `CCC(CC)COC(=O)[C@H](C)N[P@](=O)(OC[C@H]1O[C@@](C#N)(c2ccc3c(N)ncnn23)[C@H](O)[C@@H]1O)Oc1ccccc1` [remdesivir]: in the data set on SAR-CoV-2, the “EC50 against SAR-CoV-2 in HAE” value is 0.04218 µg/mL (≈ 0.07 µM). The EC50 in the data set on SARS-CoV-2 [1] was 280 nM. For the same compound, in the data set on SARS-CoV-2 [2], the “EC50 in Calu-3 2B4 cells” value is 0.16873 µg/mL (≈ 0.28 µM) and the 50% effective concentration (EC50) is 280 nM. Further, in the data set with severe COVID-19 patients, the recovery time is given as 11 days.

Regarding `N#C[C@@]1(c2ccc3c(N)ncnn23)O[C@H](CO)[C@@H](O)[C@H]1O` [GS-441524], the “EC50 against SAR-CoV-2 in HAE” value with SAR-CoV-2 was 0.05243 µg/mL (≈ 0.18 µM). In addition, in the data set on SARS-CoV-2 [2], the “EC50 in Calu-3 2B4 cells” value was 0.1806 µg/mL (≈ 0.62 µM) and the EC50 is 620 nM.
